Source: PubChem BioAssay AID2049 (The Scripps Research Institute Molecular Screening Center, 2009)
Activity calls are given as the source filed them. How the calls were made is not given here.

Test system: Cytotoxicity
Test: STAT3 activators, late-stage profile, late-stage follow-up, cell-based, STAT1 reporter, BCL3 qPCR, cytotoxicity (AID 2049)
Conditions: human cell reporter, STAT3/STAT1 activation, cytotoxicity panel

Row | SMILES | CC50 [µM]
1 | COc1cc(NC(=O)c2cc(C3CC3)on2)c(OC)cc1Cl | > 55.7

Target: Signal transducer and activator of transcription 1-alpha/beta (Homo sapiens) (UniProt P42224)
Sequence (P42224 whole entry, looked up): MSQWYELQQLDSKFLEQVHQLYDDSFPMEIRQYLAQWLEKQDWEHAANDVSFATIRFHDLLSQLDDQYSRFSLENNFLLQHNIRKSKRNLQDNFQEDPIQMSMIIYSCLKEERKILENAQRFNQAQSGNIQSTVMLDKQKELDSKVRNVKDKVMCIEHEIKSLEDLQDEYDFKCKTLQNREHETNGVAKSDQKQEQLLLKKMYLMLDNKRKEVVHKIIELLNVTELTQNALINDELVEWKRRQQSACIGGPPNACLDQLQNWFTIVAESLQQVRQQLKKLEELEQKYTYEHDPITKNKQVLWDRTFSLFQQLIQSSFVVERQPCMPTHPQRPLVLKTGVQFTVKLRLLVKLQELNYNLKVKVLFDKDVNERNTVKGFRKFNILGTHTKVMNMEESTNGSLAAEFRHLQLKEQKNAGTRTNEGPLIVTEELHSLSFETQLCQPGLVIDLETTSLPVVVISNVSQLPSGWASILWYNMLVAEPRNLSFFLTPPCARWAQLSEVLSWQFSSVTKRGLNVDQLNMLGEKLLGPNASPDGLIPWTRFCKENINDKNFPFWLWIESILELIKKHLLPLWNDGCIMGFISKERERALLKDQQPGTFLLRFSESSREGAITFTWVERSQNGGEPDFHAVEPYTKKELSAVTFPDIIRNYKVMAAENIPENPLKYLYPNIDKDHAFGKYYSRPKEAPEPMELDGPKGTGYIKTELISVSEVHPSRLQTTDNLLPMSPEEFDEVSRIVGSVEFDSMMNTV
Test: as above
Conditions: STAT3/STAT1 activation, STAT1, Activation

Row | SMILES | EC50
2 | COc1ccc(OC)c(NC(=O)c2cc(CN3CCCC3)on2)c1 | > 55.7 µM (inactive)
3 | COc1cc(NC(=O)c2cc(C3CC3)on2)ccc1Br | inactive
4 | COc1ccccc1NC(=O)c1cc(-c2ccccc2)on1 | inactive
5 | Nc1c(C(=O)Nc2ccccc2)noc1C(=O)c1ccccc1 | > 55.7 µM (inactive)
6 | COc1cc(OC)c(NC(=O)c2cc(CN3CCCC3)on2)cc1Cl | > 55.7 µM (inactive)
7 | COc1cc(NC(=O)c2cc(C)on2)c(OC)cc1Cl | > 55.7 µM (inactive)
8 | COc1ccc(Cl)cc1NC(=O)c1cc(C2CC2)on1 | > 55.7 µM (inactive)
9 | COc1cccc(NC(=O)c2cc(C3CC3)on2)c1 | 5.23 µM
10 | COc1cc(NC(=O)c2cc(C3CC3)on2)c(OC)cc1Cl | > 55.7 µM (inactive)
11 | O=C(Nc1ccccc1Cl)c1cc(C2CC2)on1 | 3.05 µM
12 | COc1cc(NC(=O)c2cc(C3CC3)on2)cc(OC)c1 | inactive
13 | CCCc1cc(C(=O)Nc2cc(OC)c(Cl)cc2OC)no1 | > 55.7 µM (inactive)
14 | CN(C(=O)c1cc(C2CC2)on1)c1ccccc1 | > 55.7 µM (inactive)
15 | COc1cc(NC(=O)c2cc(C(C)C)on2)c(OC)cc1Cl | > 55.7 µM (inactive)
